Where two headings read alike, the source gives them in different places.

From article PMC6711031, “Discovery of new butyrylcholinesterase inhibitors via structure-based virtual screening” (Journal of Enzyme Inhibition and Medicinal Chemistry, 2019) come the findings set out here.

For the experiment, the target named is T1, BChE from equine serum (Equus caballus, UniProt P81908).
T1 construct: BChE from equine serum (Sigma); purchased Sigma; host or cells: equine serum
Description: biochemical. Conditions: eqBChE 0.22 U/mL, Tris-HCl pH 8.0, 20 min preincubation at 37 °C, butyrylthiocholine iodide 0.5 mM, read at 412 nm. As for the experimental part:
Selected hits were obtained from NCI and they were provided as dry powders in variable quantities (5–10 mg). […] Subsequently, they were diluted to the required concentrations with Tris buffer pH 8.0 for the assay. Enzymatic inhibition assays were performed on BChE from equine serum (Sigma), according to the spectrophotometric Ellman's method. The experiment was performed in 48-well plates in a final volume of 100 µL. Each well contained 0.22 U/mL eqBChE dissolved in Tris–HCl buffer, pH 8.0. They were preincubated for 20 min at different compound concentrations at 37 °C. Then 0.5 mM butyrylthiocholine iodide (Sigma) and 0.35 mM 5,5′-dithiobis -2-nitrobenzoico (DTNB; Sigma) were added. Colour development was measured spectrophotometrically at 412 nm using microplate reader (BioTek ELx800) at a rate of one measurement per minute over 15 min period. […] All samples were assayed in at least duplicate measurements. In general, the amount of DMSO was kept below 1% in the assay. IC50 values were determined graphically from inhibition curves using Graph Pad prism version 6, Graph Pad Software, Inc..

T1 sequence (P81908 whole entry): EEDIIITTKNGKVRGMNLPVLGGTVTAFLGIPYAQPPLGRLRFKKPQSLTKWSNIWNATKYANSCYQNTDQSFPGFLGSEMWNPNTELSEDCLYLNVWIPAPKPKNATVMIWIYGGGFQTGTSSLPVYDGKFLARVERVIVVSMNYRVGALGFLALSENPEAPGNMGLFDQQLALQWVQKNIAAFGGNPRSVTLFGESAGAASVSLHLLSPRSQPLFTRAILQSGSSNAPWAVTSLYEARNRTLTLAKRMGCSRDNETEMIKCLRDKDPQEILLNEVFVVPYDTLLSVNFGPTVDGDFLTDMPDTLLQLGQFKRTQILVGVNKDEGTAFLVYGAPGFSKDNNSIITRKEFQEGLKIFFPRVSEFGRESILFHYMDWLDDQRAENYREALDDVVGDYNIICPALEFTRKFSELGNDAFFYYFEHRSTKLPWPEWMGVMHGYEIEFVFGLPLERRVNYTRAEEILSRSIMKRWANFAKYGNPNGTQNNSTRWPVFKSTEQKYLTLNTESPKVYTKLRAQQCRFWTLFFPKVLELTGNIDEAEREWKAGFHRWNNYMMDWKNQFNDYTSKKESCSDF

`O=C1CC2COc3ccc(OCCN4CCCC4)cc3C2=NN1c1ccccc1` (stereo not drawn) [Compound 4, 2-phenyl-9–(2-(pyrrolidin-1-yl)ethoxy)-4a,5-dihydro-2H-chromeno[4,3-c]pyridazin-3(4H)-one]: the 50% inhibitory concentration (IC50) (read-out: IC50 value) was 8.3 ± 0.07 µM.

On to `NCCC1CCc2[nH]c3ccccc3c2C1` (stereo not drawn) [Compound 26, 2–(2,3,4,9-tetrahydro-1H-carbazol-3-yl)ethanamine], for which the IC50 (IC50 value) was 39.7 ± 0.16 µM.

For `OC(c1ccccc1)C(NCCNCc1ccccc1)c1ccccc1` (stereo not drawn) [Compound 12, 2-[2-(benzylamino)ethylamino]-1,2-diphenylethanol], for the setting “read-out: IC50 value”, the IC50 was determined as 22.2 ± 0.12 µM.

The IC50 is the point on the concentration scale where inhibition reaches its midpoint.
